In US11208412B2 (DAEGU-GYEONGBUK MEDICAL INNOVATION FOUNDATION, priority 2017, dated 2021):

Molecular target: T1, recombinant LRRK2 kinase (Homo sapiens, UniProt Q5S007)
T1 construct: purchased Signal Chem, Richmond, BC, Canada
Test: LRRK2 kinase inhibition (Kinase-Glo luminescence)
Assay type: biochemical
Settings: IC50 grade; 25 μmol/L ATP, LRRKtide, 30° C. 2 hours; read-out: Enzyme activity LRRK2
Description: Upon completion of the reaction, an equal amount of Kinase-Glo (Promega, Madison, Wis.) solution was added thereto, followed by reaction for 40 minutes. A detection solution was added thereto, followed by further reaction at room temperature for 30 minutes. Then, IC50 of kinase was calculated by measuring the amount of luciferase using a microplate ELISA reader (Bio-Tek).

T1 sequence (Q5S007 whole entry): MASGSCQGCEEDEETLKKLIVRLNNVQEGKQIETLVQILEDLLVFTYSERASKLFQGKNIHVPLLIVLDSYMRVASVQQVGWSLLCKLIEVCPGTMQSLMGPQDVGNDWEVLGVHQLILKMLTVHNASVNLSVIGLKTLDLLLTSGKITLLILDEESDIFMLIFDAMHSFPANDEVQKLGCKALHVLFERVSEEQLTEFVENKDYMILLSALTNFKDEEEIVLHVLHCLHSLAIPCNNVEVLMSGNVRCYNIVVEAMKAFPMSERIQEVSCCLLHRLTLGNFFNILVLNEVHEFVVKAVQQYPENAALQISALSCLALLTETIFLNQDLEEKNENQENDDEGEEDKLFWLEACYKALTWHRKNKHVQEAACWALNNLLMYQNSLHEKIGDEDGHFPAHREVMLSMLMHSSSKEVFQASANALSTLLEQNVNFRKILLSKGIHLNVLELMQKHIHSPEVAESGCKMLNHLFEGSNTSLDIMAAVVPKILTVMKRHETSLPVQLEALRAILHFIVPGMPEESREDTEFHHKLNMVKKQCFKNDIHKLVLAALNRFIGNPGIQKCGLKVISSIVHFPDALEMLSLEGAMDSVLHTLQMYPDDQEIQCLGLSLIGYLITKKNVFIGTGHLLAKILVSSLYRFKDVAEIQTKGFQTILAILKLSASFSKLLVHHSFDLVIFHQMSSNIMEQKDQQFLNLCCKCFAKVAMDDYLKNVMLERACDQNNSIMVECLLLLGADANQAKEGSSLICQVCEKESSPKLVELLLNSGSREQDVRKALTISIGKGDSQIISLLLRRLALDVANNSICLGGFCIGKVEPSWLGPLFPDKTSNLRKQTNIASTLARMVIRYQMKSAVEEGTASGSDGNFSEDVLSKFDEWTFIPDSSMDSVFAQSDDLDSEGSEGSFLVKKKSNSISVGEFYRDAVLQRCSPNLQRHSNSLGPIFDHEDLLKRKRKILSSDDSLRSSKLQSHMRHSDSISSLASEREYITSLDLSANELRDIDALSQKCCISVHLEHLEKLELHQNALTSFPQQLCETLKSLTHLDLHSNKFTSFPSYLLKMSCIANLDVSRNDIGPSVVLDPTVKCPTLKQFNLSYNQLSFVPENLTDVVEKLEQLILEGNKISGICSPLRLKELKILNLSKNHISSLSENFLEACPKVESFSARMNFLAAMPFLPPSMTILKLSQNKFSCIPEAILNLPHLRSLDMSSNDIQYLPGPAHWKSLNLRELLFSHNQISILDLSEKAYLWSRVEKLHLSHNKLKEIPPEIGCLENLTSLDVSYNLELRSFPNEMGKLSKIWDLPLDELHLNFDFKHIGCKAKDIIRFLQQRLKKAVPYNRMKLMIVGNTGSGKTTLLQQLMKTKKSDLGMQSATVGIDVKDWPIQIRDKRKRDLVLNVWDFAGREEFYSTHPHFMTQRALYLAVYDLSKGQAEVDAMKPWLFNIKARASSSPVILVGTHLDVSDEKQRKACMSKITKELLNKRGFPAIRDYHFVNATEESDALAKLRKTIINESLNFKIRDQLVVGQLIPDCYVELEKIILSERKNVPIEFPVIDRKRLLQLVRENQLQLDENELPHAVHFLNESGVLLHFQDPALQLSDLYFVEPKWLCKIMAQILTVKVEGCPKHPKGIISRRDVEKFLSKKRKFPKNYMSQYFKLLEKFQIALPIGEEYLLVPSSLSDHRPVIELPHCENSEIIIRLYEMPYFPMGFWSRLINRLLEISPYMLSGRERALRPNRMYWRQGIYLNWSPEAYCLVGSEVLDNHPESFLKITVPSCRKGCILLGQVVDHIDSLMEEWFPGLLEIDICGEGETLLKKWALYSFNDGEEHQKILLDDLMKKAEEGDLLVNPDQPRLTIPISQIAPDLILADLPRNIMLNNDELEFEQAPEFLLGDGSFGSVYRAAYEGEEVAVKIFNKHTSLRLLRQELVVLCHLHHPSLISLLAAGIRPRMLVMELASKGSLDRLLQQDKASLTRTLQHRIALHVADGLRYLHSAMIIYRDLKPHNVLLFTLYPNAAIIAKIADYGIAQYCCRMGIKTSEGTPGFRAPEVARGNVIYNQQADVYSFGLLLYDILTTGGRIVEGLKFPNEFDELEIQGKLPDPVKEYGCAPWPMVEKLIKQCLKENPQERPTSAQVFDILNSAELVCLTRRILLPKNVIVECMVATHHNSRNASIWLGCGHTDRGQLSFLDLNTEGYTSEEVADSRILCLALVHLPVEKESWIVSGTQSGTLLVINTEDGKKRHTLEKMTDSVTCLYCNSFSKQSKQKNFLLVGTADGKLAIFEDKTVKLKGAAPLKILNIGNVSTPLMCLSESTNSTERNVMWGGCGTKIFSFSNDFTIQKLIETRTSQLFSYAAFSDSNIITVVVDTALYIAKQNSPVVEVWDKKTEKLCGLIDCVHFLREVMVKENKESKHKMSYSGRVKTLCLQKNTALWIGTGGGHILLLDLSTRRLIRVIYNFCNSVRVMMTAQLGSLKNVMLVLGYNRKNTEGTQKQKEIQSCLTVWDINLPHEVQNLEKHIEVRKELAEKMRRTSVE

SMILES | IC50
CNc1nc(Nc2cc(F)c(C(=O)NC3CCN(C)CC3)cc2OC)nc2[nH]cc(C#N)c12 [Example 65, 4-((5-cyano-4-(methylamino)-7H-pyrrolo[2,3-d]pyrimidine-2-yl)amino)-2-fluoro-5-methoxy-N-(1-methylpiperidine-4-yl)benzamide] | < 10 nM
CCNc1nc(Nc2cc(F)c(C(=O)NC3CCN(C)CC3)cc2OC)nc2[nH]cc(C#N)c12 [Example 66, 4-((5-cyano-4-(ethylamino)-7H-pyrrolo[2,3-d]pyrimidine-2-yl)amino)-2-fluoro-5-methoxy-N-(1-methylpiperidine-4-yl)benzamide] | 10 to 100 nM
CNc1nc(Nc2cc(F)c(C(=O)NC3CCN(C(C)C)CC3)cc2OC)nc2[nH]cc(C#N)c12 [Example 67, 4-((5-cyano-4-(methylamino)-7H-pyrrolo[2,3-d]pyrimidine-2-yl)amino)-2-fluoro-N-(1-isopropylpiperidine-4-yl)-5-methoxybenzamide] | < 10 nM
CCNc1nc(Nc2cc(F)c(C(=O)NC3CCN(C(C)C)CC3)cc2OC)nc2[nH]cc(C#N)c12 [Example 68, 4-((5-cyano-4-(ethylamino)-7H-pyrrolo[2,3-d]pyrimidine-2-yl)amino)-2-fluoro-N-(1-isopropylpiperidine-4-yl)-5-methoxybenzamide] | < 10 nM
CNc1nc(Nc2cnn(CCO)c2)nc2[nH]cc(C#N)c12 [Example 69, 2-((1-(2-hydroxyethyl)-1H-pyrazole-4-yl)amino)-4-(methylamino)-7H-pyrrolo[2,3-d]pyrimidine-5-carbonitrile] | < 10 nM
CCNc1nc(Nc2cnn(CCO)c2)nc2[nH]cc(C#N)c12 [Example 70, 4-(ethylamino)-2-((1-(2-hydroxyethyl)-1H-pyrazole-4-yl)amino)-7H-pyrrolo[2,3-d]pyrimidine-5-carbonitrile] | < 10 nM
CNc1nc(Nc2cn(C(C)(C)C#N)nc2Cl)nc2[nH]cc(C#N)c12 [Example 71, 2-((3-chloro-1-(2-cyanopropane-2-yl)-1H-pyrazole-4-yl)amino)-4-(methylamino)-7H-pyrrolo[2,3-d]pyrimidine-5-carbonitrile] | < 10 nM
CCNc1nc(Nc2cn(C(C)(C)C#N)nc2Cl)nc2[nH]cc(C#N)c12 [Example 72, 2-((3-chloro-1-(2-cyanopropane-2-yl)-1H-pyrazole-4-yl)amino)-4-(ethylamino)-7H-pyrrolo[2,3-d]pyrimidine-5-carbonitrile] | < 10 nM
CNc1nc(Nc2cnn(C(C)(C)C#N)c2Cl)nc2[nH]cc(C#N)c12 [Example 73, 2-((5-chloro-1-(2-cyanopropane-2-yl)-1H-pyrazole-4-yl)amino)-4-(methylamino)-7H-pyrrolo[2,3-d]pyrimidine-5-carbonitrile] | < 10 nM
CCNc1nc(Nc2cnn(C(C)(C)C#N)c2Cl)nc2[nH]cc(C#N)c12 [Example 74, 2-((5-chloro-1-(2-cyanopropane-2-yl)-1H-pyrazole-4-yl)amino)-4-(ethylamino)-7H-pyrrolo[2,3-d]pyrimidine-5-carbonitrile] | < 10 nM
CNc1nc(Nc2ccc(C(=O)N3CCN(C)C[C@H]3C)cc2OC)nc2[nH]cc(C#N)c12 [Example 75, (R)-2-((4-(2,4-dimethylpiperazine-1-carbonyl)-2-methoxyphenyl)amino)-4-(methylamino)-7H-pyrrolo[2,3-d]pyrimidine-5-carbonitrile] | < 10 nM
CCNc1nc(Nc2ccc(C(=O)N3CCN(C)C[C@H]3C)cc2OC)nc2[nH]cc(C#N)c12 [Example 76, (R)-2-((4-(2,4-dimethylpiperazine-1-carbonyl)-2-methoxyphenyl)amino)-4-(ethylamino)-7H-pyrrolo[2,3-d]pyrimidine-5-carbonitrile] | < 10 nM
CNc1nc(Nc2c(C)nn(C(C)(C)C#N)c2C)nc2[nH]cc(C#N)c12 [Example 77, 2-((1-(2-cyanopropane-2-yl)-3,5-dimethyl-1H-pyrazole-4-yl)amino)-4-(methylamino)-7H-pyrrolo[2,3-d]pyrimidine-5-carbonitrile] | > 100 nM
CCNc1nc(Nc2c(C)nn(C(C)(C)C#N)c2C)nc2[nH]cc(C#N)c12 [Example 78, 2-((1-(2-cyanopropane-2-yl)-3,5-dimethyl-1H-pyrazole-4-yl)amino)-4-(ethylamino)-7H-pyrrolo[2,3-d]pyrimidine-5-carbonitrile] | > 100 nM
CCNc1nc(Nc2cc(F)c(C(=O)N3CCN(C)C[C@H]3C)cc2OC)nc2[nH]cc(C#N)c12 [Example 79, (R)-2-((4-(2,4-dimethylpiperazine-1-carbonyl)-5-fluoro-2-methoxyphenyl)amino)-4-(ethylamino)-7H-pyrrolo[2,3-d]pyrimidine-5-carbonitrile] | < 10 nM
CNc1nc(Nc2cc(F)c(C(=O)N3CCN(C)C[C@H]3C)cc2OC)nc2[nH]cc(C#N)c12 [Example 80, (R)-2-((4-(2,4-dimethylpiperazine-1-carbonyl)-5-fluoro-2-methoxyphenyl)amino)-4-(methylamino)-7H-pyrrolo[2,3-d]pyrimidine-5-carbonitrile] | 10 to 100 nM
COc1cc(C(=O)NC2CCN(C3COC3)CC2)c(F)cc1Nc1nc(NC2(C)CC2)c2c(C#N)c[nH]c2n1 [Example 81, 4-((5-cyano-4-((1-methylcyclopropyl)amino)-7H-pyrrolo[2,3-]pyrimidine-2-yl)amino)-2-fluoro-5-methoxy-N-(1-(oxetane-3-yl)piperidine-4-yl)benzamide] | 10 to 100 nM
COc1cc(C(=O)NC2CCN(C(C)C)CC2)c(F)cc1Nc1nc(NC2(C)CC2)c2c(C#N)c[nH]c2n1 [Example 82, 4-((5-cyano-4-((1-methylcyclopropyl)amino)-7H-pyrrolo[2,3-d]pyrimidine-2-yl)amino)-2-fluoro-N-(1-isopropylpiperidine-4-yl)-5-methoxybenzamide] | 10 to 100 nM
COc1cc(C(=O)NC2CCN(C)CC2)c(F)cc1Nc1nc(NC2(C)CC2)c2c(C#N)c[nH]c2n1 [Example 83, 4-((5-cyano-4-((1-methylcyclopropyl)amino)-7H-pyrrolo[2,3-d]pyrimidine-2-yl)amino)-2-fluoro-5-methoxy-N-(1-methylpiperidine-4-yl)benzamide] | < 10 nM
COc1cc(C(=O)N2CCOCC2)ccc1Nc1nc(OC2CCOCC2)c2c(C#N)c[nH]c2n1 [Example 84, 2-((2-methoxy-4-(morpholine-4-carbonyl)phenyl)amino)-4-((tetrahydro-2H-pyran-4-yl)oxy)-7H-pyrrolo[2,3-d]pyrimidine-5-carbonitrile] | < 10 nM
COc1cc(C(=O)N2CCC(N3CCOCC3)CC2)ccc1Nc1nc(OC2CCOCC2)c2c(C#N)c[nH]c2n1 [Example 85] | < 10 nM
COc1cc(C(=O)N2CCOCC2)ccc1Nc1nc(OC2CCOC2)c2c(C#N)c[nH]c2n1 (centres unmarked) [Example 86, 2-((2-methoxy-4-(morpholine-4-carbonyl)phenyl)amino)-4-((tetrahydrofuran-3-yl)oxy)-7H-pyrrolo[2,3-d]pyrimidine-5-carbonitrile] | < 10 nM
COc1cc(C(=O)N2CCC(N3CCOCC3)CC2)ccc1Nc1nc(OC2CCOC2)c2c(C#N)c[nH]c2n1 (centres unmarked) [Example 87, 2-((2-methoxy-4-(4-morpholinopiperidine-1-carbonyl)phenyl)amino)-4-((tetrahydrofuran-3-yl)oxy)-7H-pyrrolo[2,3-d]pyrimidine-5-carbonitrile] | < 10 nM
